Assay [1] has as its target Ribosomal protein S6 kinase alpha-3 (Homo sapiens, UniProt P51812). Description: Selectivity interaction (Ambit KINOMEscan and KiNATiv profiling in Jurkat cells) EUB0000090b RPS6KA3. To be noted: at 1 µM. The class given is cell-based.
The target in assay [2] is Cyclin-dependent kinase 15 (Homo sapiens) (UniProt Q96Q40). Description: Selectivity interaction (KinomeScan (DiscoverX)) EUB0000607a CDK15. As to conditions: at 10 µM.
In assay [3] the target is T1, cGMP-dependent protein kinase 2 (Homo sapiens) (UniProt Q13237).
T1 sequence (whole entry): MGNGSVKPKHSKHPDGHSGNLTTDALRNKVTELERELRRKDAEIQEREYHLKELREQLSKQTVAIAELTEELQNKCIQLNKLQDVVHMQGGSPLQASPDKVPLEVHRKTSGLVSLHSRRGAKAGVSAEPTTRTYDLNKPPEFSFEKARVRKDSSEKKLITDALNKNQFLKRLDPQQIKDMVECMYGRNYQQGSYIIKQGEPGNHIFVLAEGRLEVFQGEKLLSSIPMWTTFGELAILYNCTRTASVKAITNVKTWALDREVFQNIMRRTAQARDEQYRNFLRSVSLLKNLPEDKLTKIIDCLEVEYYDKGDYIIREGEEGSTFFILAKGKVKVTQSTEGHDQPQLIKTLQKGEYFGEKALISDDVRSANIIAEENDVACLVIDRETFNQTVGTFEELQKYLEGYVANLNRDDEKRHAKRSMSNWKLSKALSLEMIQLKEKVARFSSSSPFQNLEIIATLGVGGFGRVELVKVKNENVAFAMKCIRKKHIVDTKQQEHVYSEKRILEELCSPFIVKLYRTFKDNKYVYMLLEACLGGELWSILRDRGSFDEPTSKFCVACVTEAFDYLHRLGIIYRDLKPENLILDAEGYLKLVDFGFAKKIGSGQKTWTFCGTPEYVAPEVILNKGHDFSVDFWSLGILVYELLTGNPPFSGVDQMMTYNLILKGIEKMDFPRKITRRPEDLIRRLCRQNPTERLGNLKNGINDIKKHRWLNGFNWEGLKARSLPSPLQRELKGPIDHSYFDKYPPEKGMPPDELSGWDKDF
Description: Selectivity interaction (SelectScreen profiling (Invitrogen)) EUB0000607a PRKG2. To be noted: at 2 µM.

Assay [4] concerns the target Mitogen-activated protein kinase kinase kinase 9 (Homo sapiens) (UniProt P80192). Kind of assay: Selectivity interaction (KinomeScan (DiscoverX)) EUB0000666a MAP3K9. To be noted: at 10 µM.
Assay [5] concerns the target T2, Myosin light chain kinase family member 4 (Homo sapiens) (UniProt Q86YV6).
T2 sequence (whole entry): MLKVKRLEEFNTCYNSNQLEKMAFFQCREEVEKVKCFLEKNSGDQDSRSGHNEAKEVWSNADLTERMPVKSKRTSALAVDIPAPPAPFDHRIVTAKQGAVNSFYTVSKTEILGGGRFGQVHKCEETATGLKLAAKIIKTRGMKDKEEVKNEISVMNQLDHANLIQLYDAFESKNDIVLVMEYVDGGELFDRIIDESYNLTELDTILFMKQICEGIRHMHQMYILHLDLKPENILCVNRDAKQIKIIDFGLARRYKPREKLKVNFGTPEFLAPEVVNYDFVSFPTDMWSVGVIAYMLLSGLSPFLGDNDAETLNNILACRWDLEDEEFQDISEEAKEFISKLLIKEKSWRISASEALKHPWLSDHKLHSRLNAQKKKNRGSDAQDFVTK
Kind of assay: Selectivity interaction (KinomeScan (DiscoverX)) EUB0000666a MYLK4. To be noted: at 10 µM.

Assay [6] addresses Serine/threonine-protein kinase/endoribonuclease IRE1 (Homo sapiens) (UniProt O75460). Description: Selectivity interaction (KinomeScan (DiscoverX)) EUB0000229b ERN1. As to conditions: at 10 µM.
Assay [7] has as its target STE20-like serine/threonine-protein kinase (Homo sapiens, UniProt Q9H2G2). Description: Selectivity interaction (Kinase panel (Invitrogen)) EUB0000639a SLK. To be noted: at 200 nM.
In assay [8] the target is Serine/threonine-protein kinase MRCK alpha (Homo sapiens) (UniProt Q5VT25). To be noted: at 10 µM.
For assay [9], the target named is Fibroblast growth factor receptor 1 (Homo sapiens, UniProt P11362).
Sequence of Fibroblast growth factor receptor 1 (P11362 whole entry): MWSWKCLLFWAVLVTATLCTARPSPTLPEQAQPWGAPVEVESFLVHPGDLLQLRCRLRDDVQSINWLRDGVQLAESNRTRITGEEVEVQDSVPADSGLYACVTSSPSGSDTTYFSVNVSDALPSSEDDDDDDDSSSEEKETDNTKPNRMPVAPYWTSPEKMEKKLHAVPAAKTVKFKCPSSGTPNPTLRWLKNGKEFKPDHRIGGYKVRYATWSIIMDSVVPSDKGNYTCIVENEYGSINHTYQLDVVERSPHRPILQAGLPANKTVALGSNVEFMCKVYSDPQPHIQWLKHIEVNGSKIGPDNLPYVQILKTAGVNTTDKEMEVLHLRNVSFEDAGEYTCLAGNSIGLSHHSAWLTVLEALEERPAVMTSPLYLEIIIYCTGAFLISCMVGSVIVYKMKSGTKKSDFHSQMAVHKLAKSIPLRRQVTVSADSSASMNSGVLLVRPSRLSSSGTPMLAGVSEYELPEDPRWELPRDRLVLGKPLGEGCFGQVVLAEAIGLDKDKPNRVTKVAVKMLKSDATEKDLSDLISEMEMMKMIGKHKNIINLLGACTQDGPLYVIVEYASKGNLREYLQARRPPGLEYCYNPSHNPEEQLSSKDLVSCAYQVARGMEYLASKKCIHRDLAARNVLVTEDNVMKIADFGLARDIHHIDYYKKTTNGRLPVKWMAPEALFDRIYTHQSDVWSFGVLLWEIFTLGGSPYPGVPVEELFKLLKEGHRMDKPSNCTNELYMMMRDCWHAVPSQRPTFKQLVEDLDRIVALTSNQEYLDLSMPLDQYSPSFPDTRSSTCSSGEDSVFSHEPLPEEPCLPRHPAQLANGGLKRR
Assay [10] addresses T3, Bone morphogenetic protein receptor type-2 (Homo sapiens) (UniProt Q13873).
T3 sequence (whole entry): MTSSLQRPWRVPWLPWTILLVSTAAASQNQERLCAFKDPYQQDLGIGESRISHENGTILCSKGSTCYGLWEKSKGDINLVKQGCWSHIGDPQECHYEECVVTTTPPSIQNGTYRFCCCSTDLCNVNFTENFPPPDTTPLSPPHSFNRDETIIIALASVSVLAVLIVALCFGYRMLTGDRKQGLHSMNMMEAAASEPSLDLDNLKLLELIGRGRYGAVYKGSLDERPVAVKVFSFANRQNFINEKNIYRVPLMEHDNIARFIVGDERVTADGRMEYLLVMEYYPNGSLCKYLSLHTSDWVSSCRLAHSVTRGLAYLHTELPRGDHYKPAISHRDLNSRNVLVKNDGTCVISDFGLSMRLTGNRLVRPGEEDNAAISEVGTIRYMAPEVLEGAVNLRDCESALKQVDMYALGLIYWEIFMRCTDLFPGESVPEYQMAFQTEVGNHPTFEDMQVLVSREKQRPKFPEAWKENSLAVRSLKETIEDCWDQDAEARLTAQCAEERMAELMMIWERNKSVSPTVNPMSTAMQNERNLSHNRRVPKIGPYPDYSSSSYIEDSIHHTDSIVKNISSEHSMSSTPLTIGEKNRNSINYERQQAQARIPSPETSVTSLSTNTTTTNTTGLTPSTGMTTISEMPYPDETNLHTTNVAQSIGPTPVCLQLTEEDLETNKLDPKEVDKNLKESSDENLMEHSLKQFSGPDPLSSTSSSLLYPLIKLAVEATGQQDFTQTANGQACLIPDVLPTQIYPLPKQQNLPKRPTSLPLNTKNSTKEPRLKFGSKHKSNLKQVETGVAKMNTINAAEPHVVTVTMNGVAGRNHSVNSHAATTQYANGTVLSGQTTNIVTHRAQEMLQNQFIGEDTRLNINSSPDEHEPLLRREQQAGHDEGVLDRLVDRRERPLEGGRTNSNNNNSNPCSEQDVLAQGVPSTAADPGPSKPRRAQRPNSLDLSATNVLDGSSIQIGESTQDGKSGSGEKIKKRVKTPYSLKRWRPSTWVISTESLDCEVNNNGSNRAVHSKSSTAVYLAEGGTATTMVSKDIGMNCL
Description: Selectivity interaction (KinomeScan (DiscoverX)) EUB0000092b BMPR2. To be noted: at 10 µM.

Assay [11] addresses Calcium/calmodulin-dependent protein kinase kinase 2 (Homo sapiens) (UniProt Q96RR4). Kind of assay: Selectivity interaction (KinomeScan (DiscoverX)) EUB0000092b CAMKK2. As to conditions: at 10 µM.
The target of assay [12] is G protein-coupled receptor kinase 5 (Homo sapiens, UniProt P34947). Kind of assay: Selectivity interaction (Kinase panel (DSF assay)) EUB0001559a GRK5. (In general: DSF heats the sample and reads unfolding from a dye or from intrinsic fluorescence.)
The target in assay [13] is Receptor tyrosine-protein kinase erbB-3 (Homo sapiens) (UniProt P21860). Kind of assay: Selectivity interaction (KinomeScan (DiscoverX)) EUB0000045b ERBB3.
Sequence of Receptor tyrosine-protein kinase erbB-3 (Homo sapiens) (P21860 whole entry): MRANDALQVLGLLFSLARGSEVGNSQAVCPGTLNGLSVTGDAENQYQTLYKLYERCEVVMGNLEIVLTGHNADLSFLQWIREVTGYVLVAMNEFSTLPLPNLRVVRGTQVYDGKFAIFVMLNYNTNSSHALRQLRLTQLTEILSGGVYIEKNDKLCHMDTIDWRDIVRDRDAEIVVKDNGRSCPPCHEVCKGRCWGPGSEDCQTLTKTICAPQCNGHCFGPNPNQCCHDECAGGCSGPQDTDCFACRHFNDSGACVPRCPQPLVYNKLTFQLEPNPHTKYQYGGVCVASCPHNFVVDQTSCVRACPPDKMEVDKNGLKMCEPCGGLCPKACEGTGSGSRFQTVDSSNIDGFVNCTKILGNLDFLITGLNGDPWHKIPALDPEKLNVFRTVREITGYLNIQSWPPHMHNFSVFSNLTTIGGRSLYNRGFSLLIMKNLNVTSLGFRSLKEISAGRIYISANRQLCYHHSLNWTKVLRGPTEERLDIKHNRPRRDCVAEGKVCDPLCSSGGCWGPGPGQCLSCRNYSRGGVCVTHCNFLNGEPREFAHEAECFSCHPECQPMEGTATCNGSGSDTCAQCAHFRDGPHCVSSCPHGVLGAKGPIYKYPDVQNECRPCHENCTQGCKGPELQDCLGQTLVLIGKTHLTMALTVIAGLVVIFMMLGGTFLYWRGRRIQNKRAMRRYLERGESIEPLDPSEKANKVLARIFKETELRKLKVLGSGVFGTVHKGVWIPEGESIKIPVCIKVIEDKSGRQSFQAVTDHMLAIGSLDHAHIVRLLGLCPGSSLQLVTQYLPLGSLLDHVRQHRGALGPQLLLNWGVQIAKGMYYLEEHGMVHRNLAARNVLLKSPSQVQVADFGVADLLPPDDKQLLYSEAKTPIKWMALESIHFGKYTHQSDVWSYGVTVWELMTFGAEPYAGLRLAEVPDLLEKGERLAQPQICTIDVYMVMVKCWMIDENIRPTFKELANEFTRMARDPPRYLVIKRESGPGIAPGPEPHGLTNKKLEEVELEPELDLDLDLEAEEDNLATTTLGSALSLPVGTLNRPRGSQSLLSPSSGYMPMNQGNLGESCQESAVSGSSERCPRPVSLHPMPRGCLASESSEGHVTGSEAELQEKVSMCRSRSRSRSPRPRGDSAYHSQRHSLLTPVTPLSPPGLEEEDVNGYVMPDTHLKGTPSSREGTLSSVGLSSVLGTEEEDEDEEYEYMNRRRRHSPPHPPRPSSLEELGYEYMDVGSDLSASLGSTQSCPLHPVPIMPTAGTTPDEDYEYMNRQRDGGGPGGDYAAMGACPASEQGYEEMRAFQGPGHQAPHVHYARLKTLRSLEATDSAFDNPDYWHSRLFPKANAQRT

Each structure is given as a SMILES string.

Sequence of Calcium/calmodulin-dependent protein kinase kinase 2 (Homo sapiens) (Q96RR4 2-588 limits assumed): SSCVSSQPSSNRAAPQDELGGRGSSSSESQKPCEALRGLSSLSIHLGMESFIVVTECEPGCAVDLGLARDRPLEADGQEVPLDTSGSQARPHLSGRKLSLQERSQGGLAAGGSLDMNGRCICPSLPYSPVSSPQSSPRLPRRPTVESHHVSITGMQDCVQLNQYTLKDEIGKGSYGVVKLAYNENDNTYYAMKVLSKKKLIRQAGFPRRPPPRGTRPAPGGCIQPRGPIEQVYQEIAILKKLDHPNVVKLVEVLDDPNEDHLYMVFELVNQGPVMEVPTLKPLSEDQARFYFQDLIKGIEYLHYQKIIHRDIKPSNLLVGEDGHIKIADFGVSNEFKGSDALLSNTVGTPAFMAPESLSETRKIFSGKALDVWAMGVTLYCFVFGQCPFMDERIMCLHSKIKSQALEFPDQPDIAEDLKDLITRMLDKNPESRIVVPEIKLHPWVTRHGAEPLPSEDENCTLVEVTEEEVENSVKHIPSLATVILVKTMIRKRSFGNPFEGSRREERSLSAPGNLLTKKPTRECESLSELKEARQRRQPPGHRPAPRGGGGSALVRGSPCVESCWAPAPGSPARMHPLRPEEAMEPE
Sequence of Serine/threonine-protein kinase/endoribonuclease IRE1 (Homo sapiens) (O75460 19-977 limits assumed): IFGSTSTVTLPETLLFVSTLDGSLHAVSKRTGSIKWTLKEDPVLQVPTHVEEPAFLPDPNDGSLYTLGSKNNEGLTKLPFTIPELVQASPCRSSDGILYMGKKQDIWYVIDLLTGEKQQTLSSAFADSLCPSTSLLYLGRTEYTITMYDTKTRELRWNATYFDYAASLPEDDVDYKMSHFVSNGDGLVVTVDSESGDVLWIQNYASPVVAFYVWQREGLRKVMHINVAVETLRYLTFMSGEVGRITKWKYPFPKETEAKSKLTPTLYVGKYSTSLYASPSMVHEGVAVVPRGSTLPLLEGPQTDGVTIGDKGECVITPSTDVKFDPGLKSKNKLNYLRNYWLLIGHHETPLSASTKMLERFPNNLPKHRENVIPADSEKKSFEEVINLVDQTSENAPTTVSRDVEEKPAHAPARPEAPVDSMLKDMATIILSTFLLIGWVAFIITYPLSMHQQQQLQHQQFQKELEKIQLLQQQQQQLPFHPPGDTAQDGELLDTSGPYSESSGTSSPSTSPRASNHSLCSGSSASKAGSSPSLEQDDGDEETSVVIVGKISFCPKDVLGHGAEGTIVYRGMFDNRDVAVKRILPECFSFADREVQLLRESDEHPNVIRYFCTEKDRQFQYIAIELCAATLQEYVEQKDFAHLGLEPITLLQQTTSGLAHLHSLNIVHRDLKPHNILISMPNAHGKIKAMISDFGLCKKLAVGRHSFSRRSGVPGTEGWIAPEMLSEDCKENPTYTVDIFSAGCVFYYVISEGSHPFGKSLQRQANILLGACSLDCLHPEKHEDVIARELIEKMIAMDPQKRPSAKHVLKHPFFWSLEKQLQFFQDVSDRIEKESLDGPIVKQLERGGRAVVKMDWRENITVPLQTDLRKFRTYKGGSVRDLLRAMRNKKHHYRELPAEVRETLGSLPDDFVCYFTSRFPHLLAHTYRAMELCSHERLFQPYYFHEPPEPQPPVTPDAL
Sequence of Mitogen-activated protein kinase kinase kinase 9 (Homo sapiens) (P80192 whole entry, looked up): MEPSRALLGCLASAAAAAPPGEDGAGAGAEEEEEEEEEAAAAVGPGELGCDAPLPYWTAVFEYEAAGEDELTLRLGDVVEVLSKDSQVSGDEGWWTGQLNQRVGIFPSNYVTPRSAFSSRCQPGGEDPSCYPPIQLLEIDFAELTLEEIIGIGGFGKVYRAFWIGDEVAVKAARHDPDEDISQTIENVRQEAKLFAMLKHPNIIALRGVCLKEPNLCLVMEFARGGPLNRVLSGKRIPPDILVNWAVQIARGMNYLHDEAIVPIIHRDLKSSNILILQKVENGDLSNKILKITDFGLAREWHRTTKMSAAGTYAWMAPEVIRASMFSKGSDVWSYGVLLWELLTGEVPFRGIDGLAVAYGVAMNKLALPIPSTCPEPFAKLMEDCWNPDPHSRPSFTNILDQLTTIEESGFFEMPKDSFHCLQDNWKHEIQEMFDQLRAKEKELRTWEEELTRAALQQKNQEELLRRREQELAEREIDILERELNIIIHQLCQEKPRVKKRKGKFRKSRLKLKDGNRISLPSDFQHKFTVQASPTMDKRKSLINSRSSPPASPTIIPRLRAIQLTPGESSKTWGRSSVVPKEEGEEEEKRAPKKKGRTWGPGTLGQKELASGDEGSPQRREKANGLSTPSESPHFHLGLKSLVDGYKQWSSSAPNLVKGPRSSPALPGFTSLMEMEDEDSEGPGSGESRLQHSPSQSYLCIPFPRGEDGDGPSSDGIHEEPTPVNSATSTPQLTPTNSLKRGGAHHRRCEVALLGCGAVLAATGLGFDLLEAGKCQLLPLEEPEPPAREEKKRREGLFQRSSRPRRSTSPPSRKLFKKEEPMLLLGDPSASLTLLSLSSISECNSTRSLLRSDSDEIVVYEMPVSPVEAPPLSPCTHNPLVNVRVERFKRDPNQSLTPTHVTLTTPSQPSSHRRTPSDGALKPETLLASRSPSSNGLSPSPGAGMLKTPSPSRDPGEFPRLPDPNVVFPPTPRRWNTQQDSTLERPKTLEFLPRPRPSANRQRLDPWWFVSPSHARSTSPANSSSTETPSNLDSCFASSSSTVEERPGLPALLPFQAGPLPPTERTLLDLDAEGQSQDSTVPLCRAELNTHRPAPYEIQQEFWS

Compound `CN(C)C/C=C/C(=O)Nc1ccc(C(=O)N2CCCC(Nc3ncc(Cl)c(-c4c[nH]c5ccccc45)n3)C2)cc1` (centres undefined) gave a % of control in assay [1] of 5%.
`CNC(=O)Nc1ccc(-c2nc(N3CC4CCC(C3)O4)c3cnn(C4CCC5(CC4)OCCO5)c3n2)cc1` had a % of control in assay [2] of 100%. Besides, in [3], the % of inhibition was 9%.
For `O=C(NOC[C@H](O)CO)c1ccc(F)c(F)c1Nc1ccc(I)cc1F`, the % of control worked out at 95% in assay [4] and 100% in assay [5].
As to `COc1cc(N(C)c2ccnc3ccc(C(F)(F)F)cc23)cc(OC)c1OC`, in assay [6], the % binding is 70%.
With `CC[C@@H]1[C@H](F)C(=O)N[C@@H]1COc1nccc2cc(C(N)=O)c(OC)cc12` [ZIMLOVISERTIB], the % of inhibition in assay [7] was -0.0851%.
In [8], `CCN(CC)CCCCNc1ncc2cc(-c3cc(OC)cc(OC)c3)c(NC(=O)NC(C)(C)C)nc2n1` returned a % of control of 100%.
For orientation: IC50 means the point on the concentration scale where inhibition reaches its midpoint. Higher therefore signals weaker potency. The compound `CCc1cccc(CC)c1NC(=O)c1nn(C)c2c1CCc1cnc(Nc3ccc(C(=O)NC4CCN(C)CC4)cc3OC(F)(F)F)nc1-2` showed an IC50 in [9] greater than 10 µM.
For the compound `CCC(=O)N1CCN(c2ccc(-n3c(=O)ccc4cnc5ccc(-c6cnc7ccccc7c6)cc5c43)cc2C(F)(F)F)CC1`, the % of control in assay [10] and in [11] was 85% throughout.
In turn, `CN(C(=O)c1cnn2cccnc12)c1cc2c(cc1N1CCOCC1)C(=O)N(C[C@@H](F)C(C)(C)O)C2` showed a dTM in assay [12] of 0 K.
`C=CC(=O)Nc1cc(-n2c(=O)ccc3cnc4ccc(-c5ccc(NS(C)(=O)=O)cc5)cc4c32)ccc1C`: the % of control in assay [13] (at 1 µM) and in [13] (at 10 µM) was 100% throughout.

(Values after ChEMBL document CHEMBL5465560, “Selectivity Literature for EUbOPEN Chemogenomic Library” (2024).)
